Data taken from patent US20040259764A1, “Reticulocyte depletion signatures” (priority 2002, published 2004).
Read-outs that look alike come from different tables or passages of the source. Marks after values point to notes of the source that are not given here.

What was measured:
[1] = test system: Reticulocyte Depletion Signature (Alas2 and peripherin probes), bone marrow
Source text: (§1) Compound dosing was based on the acute dose LD50s recorded in published reference or literature sources. […] The MTD (maximum tolerated dose) was then selected as the dose at which the animals […] 5-10% body weight during the 5-day range finding study. […] In addition, the clinical observations must show no or mild clinical signs during the whole of the range-finding study. At the next highest dose, signs and symptoms of adverse effects and exceeding those of the MTD should be seen to occur. Should these criteria not be met, the range-finding study is repeated using a modified dose range.
(§2) After determination of the MTD and FED for a compound, each compound was dissolved in a vehicle for administration on day 1 of the study (additional daily doses were stored as frozen aliquots from this initial formulation). Each compound was administered to three individual male Sprague-Dawley rats for each of the two doses (MTD and FED) for one of four different times (0.25 day, 1 day, 3 days, and 5 days), yielding a total of up to 24 animals per compound study. Vehicle choice was based on solubility of the compound, effect of food on adsorption, and the vehicles used in the literature reports examined during the FED selection investigations, described above. Generally, the route and vehicle in which the FED was defined are used. When there was a choice of routes and vehicles, oral routes were chosen over injection routes. Many compounds, especially oncolytics, are only administerable intravenously. In such cases, the compound was administered as an intravenous formulation into the tail vein. Orally administered compounds were given dissolved in either water, 1% carboxymethycellulose (CMC) or corn oil. Intravenously and intraperitoneally administered compounds were given in 0.9% saline. Subcutaneously administered compounds were given in corn oil. Animal body weights were determined at 1 day and, where appropriate, at 4 days, before necropsy, and clinical observations were made on a daily basis. Control animals were dosed with vehicle only. Three male animals were used for each dose and time combination used for the compound treatment.
(§3) Tissue harvest and handling: After the allocated treatment time, the tissues from the animals were harvested. […] All the tissues collected were divided to provide samples for histopathological analyses, and the remainder of each tissue was then snap-frozen.
(§4) Preparation of enriched mRNA: Punch biopsies were taken from the frozen tissues and were completely homogenized before being processed using the MagNA Pure robot. (Roche Diagnostics Corp., Indianapolis, Ind.) in combination with the MagNA Pure LC RNA Isolation kit II (Roche Diagnostics Corp). The amount of lysis buffer was adjusted to allow 1 ml per 50 mg for liver tissue, or 1 ml per 80 mg for all other tissues. After complete homogenization and before loading of the samples into the 32-well MagNA Pure plate, the samples were syringed 5-6 times using a 20-gauge 3-ml syringe to ensure a smooth solution for robotic processing. Tissue sample processing was performed in duplicate wells (loading 150 μl of homogenized sample and 150 μl of additional lysis buffere to each well) of the MagNA Pure LC, which is programmed to extract mRNA using oligo-dT selection technology into a final elution volume of 100 μl. Poly A(+) RNA sample concentration was performed using a standard ethanol precipitation protocol in the presence of glycogen (50 μg/ml). After precipitation the final purified mRNA sample was resuspended in 7 μl DEPC-treated water and quantified using a Ribogreen high-range assay (Molecular Probes) on the Victor-Wallace II Fluorometer (Perkin-Elmer).

[2] = test system: Reticulocyte Depletion Signature (Alas2 and peripherin probes), spleen
Source text: as §1, §2, §3, §4

[3] = test system: Reticulocyte Depletion Signature (Alas2 and peripherin probes), liver
Source text: as §1, §2, §3, §4

[4] = test system: two specific reticulocyte-enriched transcripts
Experimental: as §2, §3
as §4, with “(Perkin-Elmer). Additionally, the integrity of each mRNA sample was determined using the Agilent 2100 BioAnalyzer (Agilent Technologies, Palo Alto, Calif.) in combination with the RNA 6000 Nano Lab Chip kit (Agilent Technologies).” for “(Perkin-Elmer).”
0.6-20 μg of enriched mRNA from different tissue sources was processed into cRNA in the presence of different bacterial control mRNAs (1.5pg FixA, 5pgYjek, 5pg AraB, 15pg EntF, 50pg FixB, 150pg HisB, 500pg LeuB, 1500pg Gnd) and with the modification of the addition of 1.0 μl of 100 pmol/μl HPLC-purified T7-(dT)24 oligonucleotide primer instead of a 0.5 pmol/μl unpurified T7-(dT)24 primer.
The slides were rinsed in distilled, deionized water (dd-H2O) with 0.05% Tween-20® twice for 5 seconds each before they were dried by centrifugation and stored in light protective slide boxes.

[5] = bone marrow data, signature derived from liver, * = p < 0.01
[6] = spleen data, signature derived from liver, * = p < 0.01
[7] = liver data, highest training treatment normalised to 100, * = p < 0.01
[8] = rat liver, dose, route and vehicle per compound as

Structure (SMILES)	SPS (Bone Marrow) ([1]; rat, in vivo)	SPS (Spleen) ([2]; rat, in vivo)	Signature Projection Score (SPS) ([3]; rat, in vivo)	signal intensity for two specific reticulocyte-enriched transcripts as compared with vehicle-treated control animals ([4]; rat, in vivo)	SPS (Bone Marrow) [1, 5]	SPS (Spleen) [2, 6]	Signature Projection Score (SPS) [3, 7]	signal intensity for two specific reticulocyte-enriched transcripts as compared with vehicle-treated control animals [4, 8]
Cn1cnc([N+](=O)[O-])c1Sc1ncnc2nc[nH]c12 [AZATHIOPRINE, 6-((1-methyl-4-nitro-1H-imidazol-5-yl)thio)-1H-purine]	27	122*	90*	significantly decreased	–	–	–	–
Nc1nc2nc[nH]c2c(=S)[nH]1 [THIOGUANINE, 2-amino-1,7-dihydro-6H-purine-6-thione]	40	121*	99*	significantly decreased	–	–	–	–
COc1cccc2c1C(=O)c1c(O)c3c(c(O)c1C2=O)C[C@@](O)(C(=O)CO)C[C@@H]3O[C@H]1C[C@H](N)[C@H](O)[C@H](C)O1 [DOXORUBICIN, (8S-cis)-10-((3-amino-2,3,6-trideoxy-γ-L-lyxo-hexopyranosyl)oxy)-7,8,9,10-tetrahydro-6,8,11-trihydroxy-8-(hydroxyacetyl)-1-methoxy-5,12-naphthacene-dione]	0	138*	95*	significantly decreased	–	–	–	–
Nc1ccn([C@@H]2O[C@H](CO)[C@@H](O)[C@@H]2O)c(=O)n1 [CYTARABINE, 4-amino-1-β-D-arabinofuranosyl-2(1H)-pyrimidinone]	0	17	58*	significantly decreased	–	–	–	–
NC(=O)NO [HYDROXYUREA, Hydroxyurea]	–	–	–	–	0	130*	71*	significantly decreased
O=P1(NCCCl)OCCCN1CCCl (centres unmarked) [IFOSFAMIDE, N,3-bis(2-chloroethyl)tetrahydro-2H-1,3,2-oxazaphosphorin-2-amine 2-oxide]	–	–	–	–	27	24	95*	significantly decreased
COc1cc([C@@H]2c3cc4c(cc3[C@@H](O[C@@H]3O[C@@H]5CO[C@@H](C)O[C@H]5[C@H](O)[C@H]3O)[C@H]3COC(=O)[C@H]23)OCO4)cc(OC)c1O [ETOPOSIDE, 9-((4,6-0-ethylidene-β-D-glucopyranosyl)oxy)-5,8,8a,9-tetrahydro-5-(4-hydroxy-3,5,-dimethoxyphenyl)furo[3′,4′:6,7]naphtha[2,3-d]-1,3-dioxol-6(5acH)-one]	151*	146*	100*	significantly decreased	–	–	–	–
CCCSc1ccc2nc(NC(=O)OC)[nH]c2c1 [albendazole, (5-(propylthio)-1H-benzimidazol-2yl)-carbamic acid methyl ester]	–	–	–	–	–	–	–	significantly decreased
